Data from US10933075B2, “Materials and methods for suppressing and/or treating bacterial infections and related symptoms” (Indiana University Research and Technology Corporation, priority 2017, dated 2021).

Assays:
[1] = in vivo; cited from earlier work
[2] = tested on: SaeRS two component system (P1 promoter); assay: pYJ-P1-GFP reporter, Sae activity (P1 promoter activity); format: cell-based, S. aureus strain USA300; conditions: grown in TSB for 3 h, various concentrations (FIG. 3B)
Method: FIG. 3B. Graph illustrating the effect of three compounds on Sae activity of Staphylococcus aureus. Cells were grown in TSB for 3 hours in the presence of the compounds (e.g., Streptozotocin, Floxuridine, and Doxorubicin) using various concentrations as indicated. The P1 promoter has two SaeR binding sites and its activity is an excellent indicator for the Sae activity.
The sae operon consists of four genes (saeP, saeQ, saeR, and saeS), and the two promoters P1 and P3. The P1 promoter resides in the front of the very first gene saeP and can transcribe all four genes. The P1 promoter has two SaeR binding sequences (SBSs). The P1 promoter in front of the sae operon is well characterized target of the SaeRS two component system. Here, the reporter plasmid pYJ-P1-GFP was used in the library screening and the expression level of GFP was interpreted as the Sae activity.
(§1) In the library screening, S. aureus strain USA300 was grown with pYJ-P1-GFP in the presence of 10 μM test compound for 3 hours. Then the effects of the each drug on growth and GFP expression were measured. In the primary screening, about 9,000 test compounds (3,000 FDA-approved drugs, 6,000 DCL library compounds) were tested.
(§2) Referring now to FIGS. 3A and 3B, the effects of the three compounds on growth (A) and Sae activity (B) of Staphylococcus aureus were measured. The cells were grown in TSB for 3 h in the presence of the compounds with various concentrations as indicated.

Staphylococcus aureus = assay: Effect on growth of Staphylococcus aureus; format: cell-based; conditions: grown in TSB for 3 h, various concentrations (FIG. 3A)
Method: FIG. 3A. Graph illustrating the effect of three compounds on growth of Staphylococcus aureus. Cells were grown in TSB for 3 hours in the presence of the compounds (e.g., Streptozotocin, Floxuridine, and Doxorubicin) using various concentrations as indicated.
as §1, §2

S. aureus USA300 = assay: Murine model of peritoneal infection (survival, anti-virulence effect); format: in vivo, mice; conditions: for anti-virulence activity against S. aureus infection in mice (percent survival): S. aureus 2×10^8 CFU i.p., n=10-18 (FIGS. 4-6); for anti-virulence effect: mice i.p. infected with S. aureus USA300, 50 μg i.p. once every day for 7 days, from one hour post infection; for anti-virulence effect, confirmation by repeating the mouse experiment: repeat of the mouse experiment; for in vivo efficacy, dose dependence: administered after infection for 7 days (FIG. 7)
Method: FIG. 4. Effect of Streptozotocin on survival. […] Open circles represent percent survival of treated mice (i.e., steptozotocin) after the indicated period. Closed circles represent percent survival of untreated mice (i.e., control). S. aureus (2×10^8 CFU) were i.p. injected into mice (n=10-18).
In this model, mice were i.p. infected with S. aureus USA300. One hour post infection, the test compounds were administered via i.p. injection once every day for 7 days.
To determine the minimal dosage of the compounds for their protective effect, a different amount of the compounds (0-100 μg) were administered after S. aureus infection for 7 days as described above.
The biological half-life of streptozotocin is about 35-40 min. […] Although we administered the compounds every day for 7 days, due to their short half-lives, it is likely that S. aureus cells were exposed to the compounds only briefly. […] To examine the hypothesis, after 2 h post infection with S. aureus, we administered the compounds only once (25 μg for streptozotocin and floxuridine; 50 μg for doxorubicin) and watched the infected mice for 7 days.

[3] = tested on: Agr quorum sensing system, Arl two-component system, SarA DNA binding protein; assay: qRT-PCR of agrC, arlS, sarA transcription normalized by gyrB; format: cell-based, S. aureus USA300; conditions: 1 μg/mL (=3.8 μM for streptozotocin, 4 μM for floxuridine), 3 h (FIG. 9)
Method: FIG. 9. Streptozotocin (SZ) and floxuridine (FU) repress other signalling systems critical for staphylococcal virulence. The transcription level of the indicated genes was analyzed by qRT-PCR and normalized by the transcription level of gyrB. agrC, the gene of the sensor kinase of the Agr quorum sensing system; arlS, the gene of the sensor kinase of the Arl two componenet system; sarA, the gene of the DNA binding protein SarA; NT, no treatment.
The virulence of S. aureus is thought to be controlled by multiple signaling systems. Along with the Sae signaling system, the Agr quorum sensing system, Arl two-component system, and SarA DNA binding protein are known to contribute to staphylococcal virulence. To explain the high in vivo efficacy of streptozotocin and floxuridine, S. aureus USA300 was treated with 1 μg/mL (=3.8 μM for streptozotocin, 4 μM for floxuridine) for 3 h, purified total RNA and carried out qRT-PCR.

Q: With `O=c1[nH]cc(F)c(=O)[nH]1` [5-FU, 5′fluorouracil] as the molecule, how does the half-life [1] read?
A: Its half-life is 8 to 14 min.

Q: What does the source list for `COc1cccc2c1C(=O)c1c(O)c3c(c(O)c1C2=O)C[C@@](O)(C(=O)CO)C[C@@H]3O[C@H]1C[C@H](N)[C@H](O)[C@H](C)O1` [Doxorubicin]?
A: Sae activity (P1 promoter activity) [2]: reduced P1 promoter activity; growth of Staphylococcus aureus (Staphylococcus aureus): reduced growth; anti-virulence activity against S. aureus infection in mice (percent survival) (S. aureus USA300): exhibited anti-virulence activity; anti-virulence effect (S. aureus USA300): anti-virulence effect; anti-virulence effect, confirmation by repeating the mouse experiment (S. aureus USA300): significant anti-virulence effect

Q: For `O=C1OC2(c3ccccc31)c1cc(I)c(O)c(I)c1Oc1c2cc(I)c(O)c1I` [Erythrosine sodium], which anti-virulence effect (S. aureus USA300) is on record?
A: Its anti-virulence effect is “anti-virulence effect”.

Q: What does the source list for `O=c1[nH]c(=O)n([C@H]2C[C@H](O)[C@@H](CO)O2)cc1F` [Floxuridine]?
A: Sae activity (P1 promoter activity) [2]: reduced P1 promoter activity; growth of Staphylococcus aureus (Staphylococcus aureus): reduced growth; in vivo efficacy, dose dependence (S. aureus USA300; 10 μg): statistically significant in vivo efficacy; anti-virulence activity against S. aureus infection in mice (percent survival) (S. aureus USA300): exhibited anti-virulence activity; anti-virulence effect (S. aureus USA300): anti-virulence effect; anti-virulence effect, confirmation by repeating the mouse experiment (S. aureus USA300): significant anti-virulence effect; transcription level of agrC, arlS, sarA (signaling systems critical for virulence) [3]: inhibit multiple signaling systems; catabolism [1]: rapidly catabolized to 5′fluorouracil

Q: With `CC(=O)[C@H]1CC[C@H]2[C@@H]3CC=C4C[C@@H](OC(=O)CCC(=O)O)CC[C@]4(C)[C@H]3CC[C@]12C` [Pregnenolone succinate] as the molecule, how does the anti-virulence effect (S. aureus USA300) read?
A: Its anti-virulence effect is “anti-virulence effect”.

Q: Which results are given for `CN(N=O)C(=O)NC1C(O)[C@H](O)C(CO)O[C@H]1O` (stereo partly shown) [Streptozotocin]?
A: Sae activity (P1 promoter activity) [2]: reduced P1 promoter activity; growth of Staphylococcus aureus (Staphylococcus aureus): reduced growth; in vivo efficacy, dose dependence (S. aureus USA300; 5 μg): statistically significant in vivo efficacy; in vivo efficacy, dose dependence (S. aureus USA300; 10-100 μg): comparable in vivo efficacy; anti-virulence activity against S. aureus infection in mice (percent survival) (S. aureus USA300): exhibited anti-virulence activity; anti-virulence effect (S. aureus USA300): anti-virulence effect; anti-virulence effect, confirmation by repeating the mouse experiment (S. aureus USA300): significant anti-virulence effect; transcription level of agrC, arlS, sarA (signaling systems critical for virulence) [3]: inhibit multiple signaling systems; biological half-life [1]: 35-40 min
